Source: PubChem BioAssay AID1745844 (Carcinogenic Potency Database (CPDB), 2022)
Values joined by “and” are separate entries in the source; they are usually repeats but may differ in a detail not shown here. Equal entries are not always repeated. Active and inactive are the calls of the source. How the calls were made is not given here.

Test system: rodent lifetime carcinogenesis bioassay, tumor incidence TD50
Experiment: chronic cancer bioassays in animals – CPDB, compiled studies (AID 1745844)
[1] = mouse, strain Charles River CD1, females, in drinking water, site: all sites, lesion: all vascular tumors, dosed 52 weeks, study length 52 weeks
[2] = mouse, strain Charles River CD1, males, in drinking water, site: all sites, lesion: all vascular tumors, dosed 52 weeks, study length 52 weeks
[3] = mouse, strain Charles River CD1, males, in drinking water, site: liver, lesion: hepatocellular carcinoma, dosed 52 weeks, study length 52 weeks
[4] = mouse, strain Charles River CD1, males, in drinking water, site: liver, lesion: several types, types named in the paper, dosed 52 weeks, study length 52 weeks
[5] = mouse, strain Charles River CD1, males, in drinking water, site: lung, lesion: alveolar/bronchiolar adenoma, dosed 52 weeks, study length 52 weeks

Molecule `CN(C)N` has a TD50 (hamster, strain Syrian Golden, females, in drinking water, site: blood vessels, lesion: several types, types named in the paper, dosed 79 weeks, study length 79 weeks) of 620 mg/kg/day, a TD50 (hamster, strain Syrian Golden, females, in drinking water, site: cecum, lesion: several types, types named in the paper, dosed 79 weeks, study length 79 weeks) of 104 mg/kg/day and a TD50 (hamster, strain Syrian Golden, females, in drinking water, site: liver, lesion: several types, types named in the paper, dosed 79 weeks, study length 79 weeks) of 620 mg/kg/day. The TD50 (hamster, strain Syrian Golden, males, in drinking water, site: blood vessels, lesion: several types, types named in the paper, dosed 91 weeks, study length 91 weeks) was 183 mg/kg/day, the TD50 (hamster, strain Syrian Golden, males, in drinking water, site: cecum, lesion: adenocarcinoma, dosed 91 weeks, study length 91 weeks) was 322 mg/kg/day and the TD50 (hamster, strain Syrian Golden, males, in drinking water, site: cecum, lesion: polypoid adenoma, dosed 91 weeks, study length 91 weeks) was 372 mg/kg/day. It also gave a TD50 (hamster, strain Syrian Golden, males, in drinking water, site: cecum, lesion: several types, types named in the paper, dosed 91 weeks, study length 91 weeks) of 155 mg/kg/day, a TD50 (hamster, strain Syrian Golden, males, in drinking water, site: liver, lesion: angioma, dosed 91 weeks, study length 91 weeks) of 975 mg/kg/day and a TD50 (hamster, strain Syrian Golden, males, in drinking water, site: liver, lesion: angiosarcoma, dosed 91 weeks, study length 91 weeks) of 242 mg/kg/day. The TD50 (hamster, strain Syrian Golden, males, in drinking water, site: liver, lesion: several types, types named in the paper, dosed 91 weeks, study length 91 weeks) was 183 mg/kg/day, the TD50 [1] was 26 mg/kg/day and the carcinogen call [1] was “negative (inactive)”. The TD50 (mouse, strain Charles River CD1, females, in drinking water, site: all sites, lesion: all vascular tumors, dosed 104 weeks, study length 104 weeks) was 11.1 mg/kg/day, the TD50 (mouse, strain Charles River CD1, females, in drinking water, site: all sites, lesion: hemangioma, dosed 52 weeks, study length 52 weeks) was 39.7 mg/kg/day and the TD50 (mouse, strain Charles River CD1, females, in drinking water, site: all sites, lesion: hemangiosarcoma, dosed 52 weeks, study length 52 weeks) was 80.8 mg/kg/day. For the same molecule, the TD50 (mouse, strain Charles River CD1, females, in drinking water, site: liver, lesion: all vascular tumors, dosed 52 weeks, study length 52 weeks) was 26 mg/kg/day, the TD50 (mouse, strain Charles River CD1, females, in drinking water, site: liver, lesion: hemangioma, dosed 52 weeks, study length 52 weeks) was 39.7 mg/kg/day and the TD50 (mouse, strain Charles River CD1, females, in drinking water, site: liver, lesion: hemangiosarcoma, dosed 52 weeks, study length 52 weeks) was 80.8 mg/kg/day. The TD50 (mouse, strain Charles River CD1, females, in drinking water, site: liver, lesion: hepatocellular adenoma, dosed 104 weeks, study length 104 weeks) was 98.7 mg/kg/day and 63.6 mg/kg/day, the TD50 (mouse, strain Charles River CD1, females, in drinking water, site: liver, lesion: hepatocellular carcinoma, dosed 104 weeks, study length 104 weeks) was 340 mg/kg/day and the carcinogen call (mouse, strain Charles River CD1, females, in drinking water, site: liver, lesion: one or several types, types not named, dosed 52 weeks, study length 52 weeks) was “negative (inactive)”. It also gave a TD50 (mouse, strain Charles River CD1, females, in drinking water, site: liver, lesion: several types, types named in the paper, dosed 104 weeks, study length 104 weeks) of 74.7 mg/kg/day, a TD50 (mouse, strain Charles River CD1, females, in drinking water, site: lung, lesion: alveolar/bronchiolar carcinoma, dosed 52 weeks, study length 52 weeks) of 81.5 mg/kg/day and a TD50 (mouse, strain Charles River CD1, females, in drinking water, site: lung, lesion: several types, types named in the paper, dosed 52 weeks, study length 52 weeks) of 3.68 mg/kg/day. The TD50 [2] was 12.6 mg/kg/day, the carcinogen call [2] was “negative (inactive)” and the TD50 (mouse, strain Charles River CD1, males, in drinking water, site: all sites, lesion: all vascular tumors, dosed 104 weeks, study length 104 weeks) was 6.13 mg/kg/day. The TD50 (mouse, strain Charles River CD1, males, in drinking water, site: all sites, lesion: hemangioma, dosed 52 weeks, study length 52 weeks) was 33.4 mg/kg/day, the TD50 (mouse, strain Charles River CD1, males, in drinking water, site: all sites, lesion: hemangioma, dosed 104 weeks, study length 104 weeks) was 339 mg/kg/day and the TD50 (mouse, strain Charles River CD1, males, in drinking water, site: all sites, lesion: hemangiosarcoma, dosed 52 weeks, study length 52 weeks) was 21.7 mg/kg/day. For the same molecule, the TD50 (mouse, strain Charles River CD1, males, in drinking water, site: liver, lesion: all vascular tumors, dosed 52 weeks, study length 52 weeks) was 12.6 mg/kg/day, the TD50 (mouse, strain Charles River CD1, males, in drinking water, site: liver, lesion: all vascular tumors, dosed 104 weeks, study length 104 weeks) was 6.47 mg/kg/day and the TD50 (mouse, strain Charles River CD1, males, in drinking water, site: liver, lesion: hemangioma, dosed 52 weeks, study length 52 weeks) was 33.4 mg/kg/day. The TD50 (mouse, strain Charles River CD1, males, in drinking water, site: liver, lesion: hemangioma, dosed 104 weeks, study length 104 weeks) was 339 mg/kg/day, the TD50 (mouse, strain Charles River CD1, males, in drinking water, site: liver, lesion: hemangiosarcoma, dosed 52 weeks, study length 52 weeks) was 21.7 mg/kg/day and the TD50 (mouse, strain Charles River CD1, males, in drinking water, site: liver, lesion: hepatocellular adenoma, dosed 52 weeks, study length 52 weeks) was 26.7 mg/kg/day (inactive). The TD50 [3] was 10.8 mg/kg/day, the carcinogen call [3] was “negative (inactive)” and the TD50 (mouse, strain Charles River CD1, males, in drinking water, site: liver, lesion: hepatocellular carcinoma, dosed 104 weeks, study length 104 weeks) was 11.9 mg/kg/day and 33.4 mg/kg/day. The TD50 [4] was 6.28e+06 mg/kg/day, the carcinogen call [4] was “negative (inactive)” and the TD50 [5] was 5.18 mg/kg/day. For the same molecule, the carcinogen call [5] was “negative (inactive)”, the TD50 (mouse, strain Charles River CD1, males, in drinking water, site: lung, lesion: alveolar/bronchiolar carcinoma, dosed 52 weeks, study length 52 weeks) was 67.4 mg/kg/day and the TD50 (mouse, strain Charles River CD1, males, in drinking water, site: lung, lesion: alveolar/bronchiolar carcinoma, dosed 104 weeks, study length 104 weeks) was 89 mg/kg/day and 33.4 mg/kg/day. For the same molecule, the TD50 (mouse, strain Charles River CD1, males, in drinking water, site: lung, lesion: several types, types named in the paper, dosed 52 weeks, study length 52 weeks) was 4.33 mg/kg/day, the TD50 (mouse, strain Charles River CD1, males, in drinking water, site: lung, lesion: several types, types named in the paper, dosed 104 weeks, study length 104 weeks) was 39.6 mg/kg/day and 26.4 mg/kg/day and the TD50 (mouse, strain Swiss albino, females, in drinking water, site: blood vessels, lesion: angiosarcoma, dosed 72 weeks, study length 72 weeks) was 3.57 mg/kg/day. It also gave a TD50 (mouse, strain Swiss albino, females, in drinking water, site: blood vessels, lesion: several types, types named in the paper, dosed 72 weeks, study length 72 weeks) of 3.65 mg/kg/day, a TD50 (mouse, strain Swiss albino, females, in drinking water, site: kidney, lesion: adenoma, dosed 72 weeks, study length 72 weeks) of 148 mg/kg/day and a TD50 (mouse, strain Swiss albino, females, in drinking water, site: lung, lesion: adenocarcinoma, dosed 72 weeks, study length 72 weeks) of 51.6 mg/kg/day. It also gave a TD50 (mouse, strain Swiss albino, females, in drinking water, site: lung, lesion: adenoma, dosed 72 weeks, study length 72 weeks) of 5.58 mg/kg/day, a TD50 (mouse, strain Swiss albino, females, in drinking water, site: lung, lesion: several types, types named in the paper, dosed 72 weeks, study length 72 weeks) of 5.69 mg/kg/day and a TD50 (mouse, strain Swiss albino, males, in drinking water, site: blood vessels, lesion: angiosarcoma, dosed 62 weeks, study length 62 weeks) of 2.09 mg/kg/day. For the same molecule, the TD50 (mouse, strain Swiss albino, males, in drinking water, site: blood vessels, lesion: several types, types named in the paper, dosed 62 weeks, study length 62 weeks) was 2.11 mg/kg/day, the TD50 (mouse, strain Swiss albino, males, in drinking water, site: kidney, lesion: adenoma, dosed 62 weeks, study length 62 weeks) was 19.5 mg/kg/day and the TD50 (mouse, strain Swiss albino, males, in drinking water, site: liver, lesion: hepatoma, dosed 62 weeks, study length 62 weeks) was 30.4 mg/kg/day. The TD50 (mouse, strain Swiss albino, males, in drinking water, site: lung, lesion: adenocarcinoma, dosed 62 weeks, study length 62 weeks) was 46.6 mg/kg/day, the TD50 (mouse, strain Swiss albino, males, in drinking water, site: lung, lesion: adenoma, dosed 62 weeks, study length 62 weeks) was 2.62 mg/kg/day and the TD50 (mouse, strain Swiss albino, males, in drinking water, site: lung, lesion: several types, types named in the paper, dosed 62 weeks, study length 62 weeks) was 2.62 mg/kg/day. For the same molecule, the TD50 (mouse, strain Swiss, females, by gavage, site: lung, lesion: one or several types, types not named, dosed 40 weeks, study length 55 weeks) was 16 mg/kg/day, the carcinogen call (rat, strain Fischer 344, females, in drinking water, site: liver, lesion: hemangioma, dosed 52 weeks, study length 52 weeks) was “negative (inactive)” and the TD50 (rat, strain Fischer 344, females, in drinking water, site: liver, lesion: hepatocellular adenoma, dosed 104 weeks, study length 104 weeks) was 184 mg/kg/day (inactive). For the same molecule, the TD50 (rat, strain Fischer 344, females, in drinking water, site: liver, lesion: hepatocellular carcinoma, dosed 104 weeks, study length 104 weeks) was 40.7 mg/kg/day (inactive), the TD50 (rat, strain Fischer 344, females, in drinking water, site: liver, lesion: several types, types named in the paper, dosed 104 weeks, study length 104 weeks) was 30.9 mg/kg/day (inactive) and the TD50 (rat, strain Fischer 344, females, in drinking water, site: pituitary gland, lesion: adenoma, dosed 104 weeks, study length 104 weeks) was 14.8 mg/kg/day (inactive). The TD50 (rat, strain Fischer 344, males, in drinking water, site: liver, lesion: hepatocellular adenoma, dosed 104 weeks, study length 104 weeks) was 205 mg/kg/day (inactive), the TD50 (rat, strain Fischer 344, males, in drinking water, site: liver, lesion: hepatocellular carcinoma, dosed 104 weeks, study length 104 weeks) was 650 mg/kg/day (inactive) and the carcinogen call (rat, strain Fischer 344, males, in drinking water, site: liver, lesion: one or several types, types not named, dosed 52 weeks, study length 52 weeks) was “negative (inactive)”. For the same molecule, the TD50 (rat, strain Fischer 344, males, in drinking water, site: liver, lesion: several types, types named in the paper, dosed 104 weeks, study length 104 weeks) was 155 mg/kg/day (inactive).

In the case of `CCN=[N+]([O-])CC`, the TD50 (rat, strain Fischer 344, males, in drinking water, site: esophagus, lesion: several types, types named in the paper, dosed 30 weeks, study length 55 weeks) is reported as 0.0302 mg/kg/day, the TD50 (rat, strain Fischer 344, males, in drinking water, site: liver, lesion: hemangiosarcoma, dosed 30 weeks, study length 55 weeks) is reported as 0.0347 mg/kg/day and the TD50 (rat, strain Fischer 344, males, in drinking water, site: liver, lesion: hepatocellular carcinoma, dosed 30 weeks, study length 55 weeks) is reported as 0.0347 mg/kg/day. The TD50 (rat, strain Fischer 344, males, in drinking water, site: liver, lesion: neurosarcoma, dosed 30 weeks, study length 55 weeks) was 0.0971 mg/kg/day, the carcinogen call (rat, strain Fischer 344, males, in drinking water, site: liver, lesion: several types, types named in the paper, dosed 30 weeks, study length 55 weeks) was “positive” and the TD50 (rat, strain Fischer 344, males, in drinking water, site: nasal cavity, lesion: several types, types named in the paper, dosed 30 weeks, study length 55 weeks) was 0.022 mg/kg/day.

`CC1(C)O[C@@H]2C[C@H]3[C@@H]4CCC5=CC(=O)C=C[C@]5(C)[C@@]4(F)[C@@H](O)C[C@]3(C)[C@]2(C(=O)CO)O1` was tested, and the TD50 (rat, strain Charles River CD (Sprague-Dawley), males, in drinking water, site: liver, lesion: hepatocellular adenoma, dosed 104 weeks, study length 104 weeks) was 0.0917 mg/kg/day, the TD50 (rat, strain Charles River CD (Sprague-Dawley), males, in drinking water, site: liver, lesion: hepatocellular carcinoma, dosed 104 weeks, study length 104 weeks) was 0.141 mg/kg/day and the TD50 (rat, strain Charles River CD (Sprague-Dawley), males, in drinking water, site: liver, lesion: several types, types named in the paper, dosed 104 weeks, study length 104 weeks) was 0.053 mg/kg/day.
